Common to all, as to assay type: biochemical
One test concerns CCNTB1. Nature of the test: In vitro transcription-translation (IVTT) assay, CCNTB1 reporter. The note with it: HeLa S3 lysate, 2 hrs at 30° C. An outline of the steps: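 IC50 fitted from the sfGFP/mCherry fluorescence ratio, normalized to no-drug control after no-DNA background subtraction. Reactions ran 2 h at 30° C in HeLa S3 cell lysate with reporter plasmid DNA and half-log compound titrations (30 μM−0.1 μM, in DMSO).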

The subject of a further test is MYC. Kind of test: In vitro transcription-translation (IVTT) assay, MYC reporter. The note with it: IVTT assay, HeLa S3 lysate, MYC reporter, normalized sfGFP/mCherry ratio; half-log dilutions 30 μM-0.1 μM, 2 hrs at 30° C. An outline of the steps:
(§1)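 Reporter: mCherry, P2A, then 3×FLAG-target peptide-sfGFP fusion, IRES-initiated; HeLa S3 lysate IVTT; cpd dilutions 30 μM−0.1 μM half-log in 100% DMSO (dilution-plate conc); DNA added last; 2 h, 30° C; PBS quench.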

The test system of the next test is CCND1. Nature of the test: In vitro transcription-translation (IVTT) assay, CCND1 reporter. The note with it: IVTT, HeLa S3 lysate, 2 hrs at 30° C. Put shortly: as §1
Another test concerns CCNE1. Nature of the test: In vitro transcription-translation (IVTT) assay, CCNE1 reporter. The note with it: HeLa S3 lysate, 2 hrs at 30° C. On the procedure:
Each preparation takes 8 cell pellets (4 ml packed volume each, approximately 1.0×10^9 cells per pellet). Thaw cell pellets from −80° C. on ice for 90 mins. Lay pellets horizontally on top of the ice and rotate every 30 mins to ensure even thawing. Once thawed, add 4 mL of cold lysis buffer to each pellet, and using a serological pipet, gently pipet up and down to break up clumps. Incubate resuspended cells in ice for an additional 30 mins (plunged into ice). During 30 min incubation, rinse and RNase-zap (Ambion) glass dounces (use loose pestle “A”), gently dry and place on ice until needed. Prepare RNase-free Eppendorf tubes for spinning and for batch storage. Add batch labels to 1.5-1.7 mL RNase-free microcentrifuge tubes (labeling scheme below). Each batch will have an extra 1.5-1.7 mL RNase-free microcentrifuge tube for 40 μL of lysate, label the top of this tube (labeling scheme below). After 30 min incubation, transfer all 8 mL of cell pellet to dounce. Cell lysis is complete after douncing 100 times. Aliquot cell lysis into 1.5-1.7 mL temporary-microcentrifuge tubes. Place tubes in centrifuge with “fins” out, and spin at 1,200×g for 5 mins. After the first spin use a 1 mL pipet to resuspend each tube and repeat spin. This acts as an additional lysis step, is more vigorous and increases lysate yield. During second spin get liquid N2 and a fresh conical tube on ice. After spin is complete, transfer supernatant (lysate) from microcentrifuge tubes into the 50 mL conical tube and keep on ice. Repeat steps 10-14 for all other cell pellets until completed. Once all cell lysate has been transferred to the 50 mL conical tube pipet to mix so the solution is homogenous. Transfer 1 mL of lysate into batch-labeled microcentrifuge tubes and flash freeze in liquid nitrogen. Be sure to pipet up and down to mix throughout transfer step. Place all tubes in the […] for long-term storage.
In vitro transcription-translation assay setup: Each assay includes a master mix containing lysate and shared components, a 96-well plate containing compound titrations for testing, a 96-well DNA plate with reporter constructs to be tested, 96-well skirted PCR plates, and 96-well flat-bottom, black, fluorescent assay plates. Reaction materials setup: (A) Master mix—15 mL conical tube (3 mL of HeLa S3 Lysate described above; 0.6 mL of ThermoFisher Accessory Proteins (#88882); 1.2 ml of ThermoFisher Reaction Mix (#88882); 0.54 mL of nuclease-free Water); (B) 96-Well Master Mix+Compound Plate (Half-log dilutions (30 μM−0.1 μM) of 4 compounds of interest are prepared in 100% DMSO); 96-Well DNA Plate (Five DNA constructs are plated into single columns within the plate. Row 1 of the column contains nuclease free H2O, all other wells contain 110 ng/μL plasmid DNA). Reactions are started by mixing 155 μL of master mix and 3.5 μL of compound serial dilutions, then 9.1 μL of master mix+compound mixture is aliquoted across 5 96-well plates. Reactions begin with final addition of 2 μL of DNA for a 11.1 μL reaction volume in each well. The entire plate is sealed, and incubated for 2 hrs at 30° C. After 2 hrs, quench the assay using 45 μL of PBS, and transfer 50 μL to a flat-bottom black microplate Quantify the sfGFP and mCherry signals from each well on each plate, taking 3 reads of each plate, and perform data analysis below.
In vitro transcription-translation assay data analysis: Each plate is read three times in channels for both sfGFP and mCherry signals. The average signal across these 3 reads is then calculated for further analysis. Control wells containing no DNA reporter are subtracted from reporter wells in the same column to remove auto-fluorescence of the lysate. Then, the ratio of sfGFP/mCherry is calculated per well, and these ratios are averaged across the triplicate experiments on the same plate. Finally, the ratio of each titration concentration is normalized to the no drug control to create the normalized stalling metric. […]

The text below walks through data of US20250129021A1, “SMALL MOLECULE PROTEIN SYNTHESIS MODULATORS” (Interdict Bio, Inc., priority 2023, published 2025).

Bounds are passed on as bounds.

A word on the IC50: it is the concentration that gives 50% inhibition. For `O=C(NCc1ccc(Cl)cc1)O[C@@H]1[C@@H](O)CN[C@@H]1Cc1ccc(Cl)cc1` [V188273, (2R,3S,4S)-2-[(4-chlorophenyl)methyl]-4-hydroxypyrrolidin-3-yl N-[(4-chlorophenyl)methyl]carbamate], the IC50 in the test on CCNTB1 was 10 to 20 µM; in the test with MYC, greater than 30 µM; with CCND1, greater than 30 µM; in the test on CCNE1, 20 to 30 µM.

On to `COc1ccc(C[C@H]2NC[C@H](O)[C@H]2OC(=O)NC[C@H]2CCN(C)C2)cc1` [V188108, (2R,3S,4S)-4-hydroxy-2-[(4-methoxyphenyl)methyl]pyrrolidin-3-yl N-{[(3R)-1-methylpyrrolidin-3-yl]methyl}carbamate], for which the concentration for half-maximal inhibition (IC50) with CCNTB1 was 20 to 30 µM; with MYC, greater than 30 µM; in the test on CCND1, greater than 30 µM; with CCNE1 it was greater than 30 µM.

Take `O=C(NCC1(F)CC1)O[C@@H]1[C@@H](O)CN[C@@H]1Cc1ccc(Cl)cc1` [V188269, (2R,3S,4S)-2-[(4-chlorophenyl)methyl]-4-hydroxypyrrolidin-3-yl N-[(1-fluorocyclopropyl)methyl]carbamate]: the IC50 with CCNTB1 was less than 10 µM; in the test with MYC, greater than 30 µM; with CCND1 it was greater than 30 µM; in the test on CCNE1, 10 to 20 µM.

For the compound `O=C(NCc1ccc(F)cc1)O[C@@H]1[C@@H](O)CN[C@@H]1Cc1ccc(Cl)cc1` [V188271, (2R,3S,4S)-2-[(4-chlorophenyl)methyl]-4-hydroxypyrrolidin-3-yl N-[(4-fluorophenyl)methyl]carbamate], the IC50 in the test with CCNTB1 was less than 10 µM; in the test on MYC, 10 to 20 µM; with CCND1, 10 to 20 µM; in the test on CCNE1, less than 10 µM.

Turning to `NS(=O)(=O)c1ccc(CNC(=O)O[C@@H]2[C@@H](O)CN[C@@H]2Cc2ccc(Cl)cc2)cc1` [V188291, (2R,3S,4S)-2-[(4-chlorophenyl)methyl]-4-hydroxypyrrolidin-3-yl N-[(4-sulfamoylphenyl)methyl]carbamate], the IC50 in the test on CCNTB1 is less than 10 µM; with MYC it was 10 to 20 µM; with CCND1 it was less than 10 µM; in the test on CCNE1 it was less than 10 µM.

Consider `COc1ccc(C[C@H]2NC[C@H](O)[C@H]2OC(=O)NCc2ccnc(C(F)(F)F)c2)cc1` [V188050, (2R,3S,4S)-4-hydroxy-2-[(4-methoxyphenyl)methyl]pyrrolidin-3-yl N-{[2-(trifluoromethyl)pyridin-4-yl]methyl}carbamate], for which the concentration for half-maximal inhibition (IC50) in the test on CCNTB1, in the test on MYC, in the test on CCND1 and with CCNE1 was less than 10 µM throughout.

On to `COc1ccc(C[C@H]2NC[C@H](O)[C@H]2OC(=O)NCc2ccc(=O)[nH]c2)cc1` [V188206, (2R,3S,4S)-4-hydroxy-2-[(4-methoxyphenyl)methyl]pyrrolidin-3-yl N-[(6-oxo-1H-pyridin-3-yl)methyl]carbamate], for which the IC50 in the test with CCNTB1, in the test with MYC, with CCND1 and with CCNE1 was less than 10 µM throughout.

For `O=C(NCC1CC1)O[C@@H]1[C@@H](O)CN[C@@H]1Cc1ccc(Cl)cc1` [V188275, (2R,3S,4S)-2-[(4-chlorophenyl)methyl]-4-hydroxypyrrolidin-3-yl N-(cyclopropylmethyl)carbamate], the concentration for half-maximal inhibition (IC50) in the test with CCNTB1 was less than 10 µM; in the test with MYC, less than 10 µM; in the test on CCND1, 10 to 20 µM; in the test on CCNE1, less than 10 µM.

Consider `COc1ccc(C[C@H]2NC[C@H](O)[C@H]2OC(=O)NCCO[C@@H]2CCNC2)cc1` [V188071, (2R,3S,4S)-4-hydroxy-2-[(4-methoxyphenyl)methyl]pyrrolidin-3-yl N-{2-[(3R)-pyrrolidin-3-yloxy]ethyl}carbamate], for which the IC50 is less than 10 µM in the test with CCNTB1, 10 to 20 µM in the test on MYC, 10 to 20 µM in the test with CCND1 and less than 10 µM in the test with CCNE1.

With `COc1ccc(C[C@H]2NC[C@H](O)[C@H]2OC(=O)NCc2ccc(S(N)(=O)=O)cc2)cc1` [V188304, (2R,3S,4S)-4-hydroxy-2-[(4-methoxyphenyl)methyl]pyrrolidin-3-yl N-[(4-sulfamoylphenyl)methyl]carbamate], the IC50 in the test with CCNTB1, in the test on MYC, in the test with CCND1 and in the test on CCNE1 was less than 10 µM in each case.

With `COc1ccc(C[C@H]2NC[C@H](O)[C@H]2OC(=O)NCC2CCNCC2)cc1` [V188172, (2R,3S,4S)-4-hydroxy-2-[(4-methoxyphenyl)methyl]pyrrolidin-3-yl N-(piperidin-4-ylmethyl)carbamate], the IC50 in the test on CCNTB1, in the test with MYC, with CCND1 and with CCNE1 was greater than 30 µM throughout.

For the compound `CNC(=O)c1ccc(CNC(=O)O[C@@H]2[C@@H](O)CN[C@@H]2Cc2ccc(OC)cc2)cc1` [V188305, (2R,3S,4S)-4-hydroxy-2-[(4-methoxyphenyl)methyl]pyrrolidin-3-yl N-{[4-(methylcarbamoyl)phenyl]methyl}carbamate], the IC50 in the test with CCNTB1, in the test with MYC, in the test on CCND1 and in the test with CCNE1 was less than 10 µM throughout.

For the compound `O=C(NCc1ccc(OC(F)(F)F)cc1)O[C@@H]1[C@@H](O)CN[C@@H]1Cc1ccc(Cl)cc1` [V188286, (2R,3S,4S)-2-[(4-chlorophenyl)methyl]-4-hydroxypyrrolidin-3-yl N-{[4-(trifluoromethoxy)phenyl]methyl}carbamate], the IC50 with CCNTB1, in the test on MYC, in the test with CCND1 and in the test with CCNE1 was greater than 30 µM throughout.

On to `COc1ccc(C[C@H]2NC[C@H](O)[C@H]2OC(=O)NCC(F)(F)CO)cc1` [V188164, (2R,3S,4S)-4-hydroxy-2-[(4-methoxyphenyl)methyl]pyrrolidin-3-yl N-(2,2-difluoro-3-hydroxypropyl)carbamate], for which the IC50 in the test with CCNTB1 was 10 to 20 µM; with MYC, greater than 30 µM; in the test on CCND1, greater than 30 µM; in the test with CCNE1, 20 to 30 µM.

Take `COc1ccc(C[C@H]2NC[C@H](O)[C@H]2OC(=O)NCc2ccc(-c3ncc[nH]3)cc2)cc1` [V188144, (2R,3S,4S)-4-hydroxy-2-[(4-methoxyphenyl)methyl]pyrrolidin-3-yl N-{[4-(1H-imidazol-2-yl)phenyl]methyl}carbamate]: the concentration for half-maximal inhibition (IC50) in the test with CCNTB1, in the test with MYC, with CCND1 and in the test on CCNE1 was less than 10 µM throughout.

Take `COc1ccc(C[C@H]2NC[C@H](O)[C@H]2OC(=O)NCc2cc(N3CCCC3)nc(N3CCCC3)c2)cc1` [V188228, (2R,3S,4S)-4-hydroxy-2-[(4-methoxyphenyl)methyl]pyrrolidin-3-yl N-{[2,6-bis(pyrrolidin-1-yl)pyridin-4-yl]methyl}carbamate]: the IC50 in the test on CCNTB1, in the test on MYC, with CCND1 and with CCNE1 was greater than 30 µM in each case.

`COc1ccc(C[C@H]2NC[C@H](O)[C@H]2OC(=O)NCC23CNC(C2)C3)cc1` [V188152, (2R,3S,4S)-4-hydroxy-2-[(4-methoxyphenyl)methyl]pyrrolidin-3-yl N-{2-azabicyclo[2.1.1]hexan-4-ylmethyl}carbamate]: the IC50 with CCNTB1 is less than 10 µM; in the test on CCND1 it was greater than 30 µM; with CCNE1 it was 10 to 20 µM.
